Measured values taken from patent US8772199B2, “Herbicidal compositions for tolerant or resistant maize crops” (Bayer Intellectual Property GmbH, priority 1998, dated 2014).
Counter-ions that a name gives are not always drawn.

System: Mais LL (Liberty-Link-Mais, maize tolerant or resistant to glufosinate-ammonium)
Assay: Field trial, damage to transgenic maize (tolerance by crop plants)
Type: in vivo
Details: for Mais LL: application 3-leaf stage
Description: Transgenic maize plants with a resistance to one or more herbicides (A) together with typical weed plants were grown in the open on 2×5 m plots under natural field conditions; alternatively, weed infestation occurred naturally when the maize plants were grown.
The damage to, and the development of, all aerial parts of the plants was recorded.
Abbreviations generally used in the tables: • g of a.s./ha=gram of active substance (100% active substance) per hectare • E^A=Total of the herbicidal effects of the individual applications • E^C Colby's expected value (cf. scoring in Table 1) • “Mais LL”=®Liberty-Link-Mais, maize which is tolerant or resistant to glufosinate-ammonium, […]

CP(=O)(O)CCC(N)C(=O)O (stereo not shown) [(A1.2), glufosinate-monoammonium salt]
Mais LL (100 g of a.s./ha, Table 11, head names no quantity): 0 | Damage to Mais LL in % (100 g of a.s./ha, application 6-leaf stage): 0% | Damage to Mais LL in % (200 g of a.s./ha, application 2-4-leaf stage): 3% | Mais LL (200 g of a.s./ha, Table 11, head names no quantity): 0 | Mais LL (200 g of a.s./ha, Table 14, head names no quantity): 0 | Damage to Mais LL in % (200 g of a.s./ha, application 5-6-leaf stage): 2% | Damage to Mais LL in % (200 g of a.s./ha, application 6-leaf stage): 0% | Damage to Mais LL in % (300 g of a.s./ha, application 2-4-leaf stage): 2% | Mais LL (300 g of a.s./ha, Table 11, head names no quantity): 0 | Damage to Mais LL in % (300 g of a.s./ha, application 4-leaf stage): 0% | Damage to Mais LL in % (400 g of a.s./ha, application 2-4-leaf stage): 5% | Mais LL (400 g of a.s./ha, Table 14, head names no quantity): 8 | Damage to Mais LL in % (400 g of a.s./ha, application 5-6-leaf stage): 4% | Damage to Mais LL in % (400 g of a.s./ha, application 6-leaf stage): 0% | Damage to Mais LL in % (600 g of a.s./ha, application 2-4-leaf stage): 3% | Mais LL (600 g of a.s./ha, Table 11, head names no quantity): 0 | Damage to Mais LL in % (600 g of a.s./ha, application 4-leaf stage): 0% | Damage to Mais LL in % (600 g of a.s./ha, application 5-6-leaf stage): 3% | Damage to Mais LL in % (1000 g of a.s./ha, application 2-4-leaf stage): 4%
